{"source": "patent EP3521435A1", "about": "“A HIGH STRINGENCY SELECTION SYSTEM FOR PROTEIN EXPRESSION IN PROLINE-AUXOTROPHIC CELLS” (Bayer AG, priority 2018, dated 2019)", "key": {"CHO-K1 cells": {"tested_on": "CHO-K1 cells", "assay": "Flow cytometric analysis of GFP expression (MFI, high fluorescing cells) in stably selected cell populations", "format": "cell-based, Chinese hamster", "conditions": "day 15 post-transfection, pJF1555", "procedure": "To efficiently test the impact of different procedures on improving selection stringency, experimental testing in stable cell populations was performed. As test molecules, enhanced green fluorescent protein (GFP) as well as a human IgG1 were chosen. CHO-K1 cells adapted to growth in suspension in defined medium were obtained from SAFC and cultivated in EX-CELL CD CHO Fusion medium (SAFC 14365C). Custom-made EX-CELL CD CHO Fusion medium without L-Proline (Pro) and without L-Ornithine (Orn) (\"proline-free medium\") was obtained from SAFC. The expression vector system was based on modified versions of \"CET 1019 AS-puro-SceI\" and \"CET 1019 AD-puro-SceI\" for GFP and human IgG1, respectively, from Merck-Millipore, containing the Puromycin selection marker (Puromycin N-acetyl-transferase) known to exert a high selection stringency. To minimize variations in cell populations derived from using different transfections or different vectors, the first series of experiments were conducted using vectors into which a P5CS expression cassette was cloned upstream of a UCOE element, in addition to the Puromycin selection marker present downstream of a gene of interest. This way, it was possible to pool different transfections using the same vector to obtain a common starting point, and split the mixture according to different selection conditions, minimizing any variations that are not due to selection conditions themselves. Expression of long and short isoform of murine P5CS (Protein: Delta-1-pyrroline-5-carboxylate synthase; Gene: Aldh18a1; UniProtKB accession number: Q9Z110-1 & Q9Z110-2) was driven by a SV40 promoter. A SV40 polyadenylation sequence was used at the 3' end of the gene. More details can be found in Table 1. Typically, CHO cells were cultivated in EX-CELL CD CHO Fusion medium containing 6 mM GlutaMAX (Thermo Fisher, 35050-38) (\"CD-Fusion medium\") at 37 °C with 5% CO2. Cells were grown to logarithmic phase under shaking conditions for transfections. 1e7 cells/cuvette were transfected using nucleofection (Amaxa Nucleofector II, following the manufacturer's recommendations) with 5 µg of linearized DNA. After transfection, cells were taken up in 1 ml medium and transferred into 1 well of a 6 well microtiter plate (MTP) already containing 1 ml medium. The cells were incubated for 24 h without shaking, after which 9 ml medium were added and cells were washed (either in standard or proline-free medium). Multiple transfections were pooled, if applicable. Cells were adjusted to 2e5 viable cells/ml and 10 ml were transferred to T-25 flasks. Reference cell populations were selected using 10 µg/ml Puromycin in CD-Fusion medium. For P5CS-based selection, EX-CELL CD CHO Fusion medium (custom-made, SAFC) containing 6 mM GlutaMAX without proline and without ornithine was used (\"proline-free\" or \"CD-Fusion w/o Pro\" medium), with or without additional selection pressure.\nCell viability of the different populations was monitored over time. As soon as cell populations appeared to recover from selection pressure, cells were transferred to Shake Flask or TubeSpins for expansion in suspension under shaking conditions. Subsequently, stable cell populations transfected with IgG were seeded at 2e5 viable cells/ml for batch fermentation without selection pressure (i.e. standard CD-Fusion medium containing proline and no other selective agents). The cells were cultivated for 5-10 days, viable cell densities and productivity were monitored over time. IgG titers were determined using Poros A-HPLC method. Typically, final batch titers were recorded at a time point at which majority of cultures had around 70% viability. Stable cell populations transfected with GFP vector were subjected to analysis by flow cytometry using Guava easyCyte 8HT Benchtop Flow Cytometer (Millipore). 250 µl of cell culture were transferred to 96 MTP and washed with PBS. Dead cells were excluded from analysis using propidium iodide (PI). […]"}, "murine P5CS long isoform": {"target": "T1, murine P5CS long isoform (Mus musculus, UniProt Q9Z110)", "T1 sequence (Q9Z110 1-795)": "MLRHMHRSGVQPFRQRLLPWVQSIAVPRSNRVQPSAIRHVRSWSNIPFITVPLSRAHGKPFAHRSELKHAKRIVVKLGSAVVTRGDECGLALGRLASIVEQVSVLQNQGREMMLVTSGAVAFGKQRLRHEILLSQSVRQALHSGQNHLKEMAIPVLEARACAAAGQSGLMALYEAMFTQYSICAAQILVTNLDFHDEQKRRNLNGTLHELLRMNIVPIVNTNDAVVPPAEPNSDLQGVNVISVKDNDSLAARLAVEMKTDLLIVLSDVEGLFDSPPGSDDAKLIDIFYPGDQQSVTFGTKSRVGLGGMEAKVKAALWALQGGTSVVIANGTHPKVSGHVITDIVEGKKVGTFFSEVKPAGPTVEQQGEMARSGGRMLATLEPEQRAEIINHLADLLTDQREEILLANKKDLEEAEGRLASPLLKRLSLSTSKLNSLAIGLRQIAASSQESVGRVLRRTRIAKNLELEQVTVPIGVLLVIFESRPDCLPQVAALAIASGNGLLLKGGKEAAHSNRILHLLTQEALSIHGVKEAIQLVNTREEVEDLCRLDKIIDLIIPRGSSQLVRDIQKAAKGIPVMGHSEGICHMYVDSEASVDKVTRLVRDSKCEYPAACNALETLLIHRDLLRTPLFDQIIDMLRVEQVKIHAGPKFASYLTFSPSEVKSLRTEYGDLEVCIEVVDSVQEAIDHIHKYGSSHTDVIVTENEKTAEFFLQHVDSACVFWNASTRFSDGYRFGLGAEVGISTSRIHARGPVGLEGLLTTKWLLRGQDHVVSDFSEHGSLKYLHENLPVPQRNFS", "conditions": "Hu et al.; cited from earlier work"}, "[1]": {"conditions": "CD-Fusion w/o Pro + 0.2 mM Orn + 10 µg/ml Puromycin"}, "[2]": {"conditions": "CD-Fusion w/o Pro + 1 mM Orn + 10 µg/ml Puromycin"}, "[3]": {"conditions": "CD-Fusion w/o Pro + 5 mM Orn + 10 µg/ml Puromycin"}}, "data": [{"smiles": "NCCC[C@H](N)C(=O)O", "note": "[Orn, L-Ornithine]", "values": [{"measurement": "Frequency of high fluorescing cells", "setting": "CHO-K1 cells; CD-Fusion w/o Pro + 0.2 mM Orn", "value": 2.4, "unit": "%"}, {"measurement": "Median Fluorescence Intensity (MFI) (yellow)", "setting": "CHO-K1 cells; CD-Fusion w/o Pro + 0.2 mM Orn", "value": 3337}, {"measurement": "Frequency of high fluorescing cells", "setting": "CHO-K1 cells; [1]", "value": 4.1, "unit": "%"}, {"measurement": "Median Fluorescence Intensity (MFI) (yellow)", "setting": "CHO-K1 cells; [1]", "value": 4665}, {"measurement": "Frequency of high fluorescing cells", "setting": "CHO-K1 cells; CD-Fusion w/o Pro + 0.25 mM Ornithine", "value": 6.3, "unit": "%"}, {"measurement": "Frequency of high fluorescing cells", "setting": "CHO-K1 cells; CD-Fusion w/o Pro + 0.5 mM Ornithine", "value": 4.1, "unit": "%"}, {"measurement": "Frequency of high fluorescing cells", "setting": "CHO-K1 cells; CD-Fusion w/o Pro + 1 mM Orn", "value": 2.4, "unit": "%"}, {"measurement": "Median Fluorescence Intensity (MFI) (yellow)", "setting": "CHO-K1 cells; CD-Fusion w/o Pro + 1 mM Orn", "value": 3121}, {"measurement": "Frequency of high fluorescing cells", "setting": "CHO-K1 cells; [2]", "value": 2.8, "unit": "%"}, {"measurement": "Median Fluorescence Intensity (MFI) (yellow)", "setting": "CHO-K1 cells; [2]", "value": 3739}, {"measurement": "Frequency of high fluorescing cells", "setting": "CHO-K1 cells; CD-Fusion w/o Pro + 1 mM Ornithine", "value": 2.3, "unit": "%"}, {"measurement": "Frequency of high fluorescing cells", "setting": "CHO-K1 cells; CD-Fusion w/o Pro + 2 mM Ornithine", "value": 0.7, "unit": "%"}, {"measurement": "Frequency of high fluorescing cells", "setting": "CHO-K1 cells; CD-Fusion w/o Pro + 3 mM Ornithine", "value": 2.6, "unit": "%"}, {"measurement": "Frequency of high fluorescing cells", "setting": "CHO-K1 cells; CD-Fusion w/o Pro + 4 mM Ornithine", "value": 1.5, "unit": "%"}, {"measurement": "Frequency of high fluorescing cells", "setting": "CHO-K1 cells; CD-Fusion w/o Pro + 5 mM Orn", "value": 0.5, "unit": "%"}, {"measurement": "Median Fluorescence Intensity (MFI) (yellow)", "setting": "CHO-K1 cells; CD-Fusion w/o Pro + 5 mM Orn", "value": 1435}, {"measurement": "Frequency of high fluorescing cells", "setting": "CHO-K1 cells; [3]", "value": 6.1, "unit": "%"}, {"measurement": "Median Fluorescence Intensity (MFI) (yellow)", "setting": "CHO-K1 cells; [3]", "value": 4103}, {"measurement": "Frequency of high fluorescing cells", "setting": "CHO-K1 cells; CD-Fusion w/o Pro + 5 mM Ornithine", "value": 1.7, "unit": "%"}, {"measurement": "Ornithine inhibition", "setting": "murine P5CS long isoform", "value": "insensitive"}]}]}
